Measurements from the supplement of paper PMC10307832.

Experiments:
Assay in all cases: relative viability (nuclei count vs DMSO), 5 days (fraction); higher = more cells survive
H3255 = test system: H3255
Outline: (§1)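 Lung cancer cell lines were seeded in 1536-well plates and dosed by pin tool the next day, with either a single drug or a fixed anchor-drug dose combined with five library-drug doses (not always all listed) spaced in √10 steps. Five days later, one step fixed the cells and stained their nuclei (final 0.05% Triton X-100, 1% formaldehyde, 1 ug/ml Hoechst), and nuclei were counted on 4× images. Relative viability is the nuclei count in treated wells divided by the count in vehicle wells, and each value is the median of duplicate plates.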

201T = test system: 201T
Outline: as §1

NCI-H2170 = test system: NCI-H2170
Outline: as §1

EPLC-272H = test system: EPLC-272H
Outline: as §1

NCI-H1437 = test system: NCI-H1437
Outline: as §1

NCI-H1975 = test system: NCI-H1975
Outline: as §1

NCI-H2085 = test system: NCI-H2085
Outline: as §1

SW 1573 = test system: SW 1573
Outline: as §1

COR-L 105 = test system: COR-L 105
Outline: as §1

LCLC-97TM1 = test system: LCLC-97TM1
Outline: as §1

NCI-H1666 = test system: NCI-H1666
Outline: as §1

PC-3 [JPC-3] = test system: PC-3 [JPC-3]
Outline: as §1

LOU-NH91 = test system: LOU-NH91
Outline: as §1

EKVX = test system: EKVX
Outline: as §1

NCI-H650 = test system: NCI-H650
Outline: as §1

NCI-H647 = test system: NCI-H647
Outline: as §1

HCC-827 = test system: HCC-827
Outline: as §1

NCI-H2342 = test system: NCI-H2342
Outline: as §1

LU99A = test system: LU99A
Outline: as §1

BEN = test system: BEN
Outline: as §1

NCI-H2087 = test system: NCI-H2087
Outline: as §1

HCC-44 = test system: HCC-44
Outline: as §1

Cc1sc2c(c1C)C(c1ccc(Cl)cc1)=N[C@@H](CC(=O)OC(C)(C)C)c1nnc(C)n1-2 [JQ1] + O=C(c1cc(Cc2n[nH]c(=O)c3ccccc23)ccc1F)N1CCN(C(=O)C2CC2)CC1 [Olaparib] (partner 8 µM)
relative viability (H3255; first compound 0.04 µM): 0.528 | relative viability (H3255; first compound 0.1265 µM): 0.492 | relative viability (H3255; first compound 0.4 µM): 0.439 | relative viability (H3255; first compound 1.265 µM): 0.305 | relative viability (H3255; first compound 4 µM): 0.264 | relative viability (201T; first compound 0.04 µM): 0.871 | relative viability (201T; first compound 0.4 µM): 0.613 | relative viability (201T; first compound 1.265 µM): 0.498 | relative viability (201T; first compound 4 µM): 0.347 | relative viability (NCI-H2170; first compound 0.04 µM): 0.614 | relative viability (NCI-H2170; first compound 0.1265 µM): 0.532 | relative viability (NCI-H2170; first compound 0.4 µM): 0.361 | relative viability (NCI-H2170; first compound 1.265 µM): 0.226 | relative viability (NCI-H2170; first compound 4 µM): 0.213 | relative viability (EPLC-272H; first compound 0.04 µM): 0.836 | relative viability (EPLC-272H; first compound 0.1265 µM): 0.716 | relative viability (EPLC-272H; first compound 0.4 µM): 0.53 | relative viability (EPLC-272H; first compound 1.265 µM): 0.471 | relative viability (EPLC-272H; first compound 4 µM): 0.199 | relative viability (NCI-H1437; first compound 0.04 µM): 0.595 | relative viability (NCI-H1437; first compound 0.1265 µM): 0.572 | relative viability (NCI-H1437; first compound 0.4 µM): 0.519 | relative viability (NCI-H1437; first compound 1.265 µM): 0.29 | relative viability (NCI-H1437; first compound 4 µM): 0.279 | relative viability (NCI-H1975; first compound 0.04 µM): 0.747 | relative viability (NCI-H1975; first compound 0.1265 µM): 0.608 | relative viability (NCI-H1975; first compound 0.4 µM): 0.473 | relative viability (NCI-H1975; first compound 1.265 µM): 0.281 | relative viability (NCI-H1975; first compound 4 µM): 0.342 | relative viability (NCI-H2085; first compound 0.04 µM): 0.781 | relative viability (NCI-H2085; first compound 0.1265 µM): 0.696 | relative viability (NCI-H2085; first compound 0.4 µM): 0.693 | relative viability (NCI-H2085; first compound 1.265 µM): 0.601 | relative viability (NCI-H2085; first compound 4 µM): 0.604 | relative viability (SW 1573; first compound 0.04 µM): 0.428 | relative viability (SW 1573; first compound 0.1265 µM): 0.317 | relative viability (SW 1573; first compound 0.4 µM): 0.344 | relative viability (SW 1573; first compound 1.265 µM): 0.211 | relative viability (SW 1573; first compound 4 µM): 0.178 | relative viability (COR-L 105; first compound 0.04 µM): 0.624 | relative viability (COR-L 105; first compound 0.1265 µM): 0.497 | relative viability (COR-L 105; first compound 0.4 µM): 0.385 | relative viability (COR-L 105; first compound 1.265 µM): 0.329 | relative viability (COR-L 105; first compound 4 µM): 0.351 | relative viability (LCLC-97TM1; first compound 0.04 µM): 0.354 | relative viability (LCLC-97TM1; first compound 0.1265 µM): 0.297 | relative viability (LCLC-97TM1; first compound 0.4 µM): 0.297 | relative viability (LCLC-97TM1; first compound 1.265 µM): 0.149 | relative viability (LCLC-97TM1; first compound 4 µM): 0.108 | relative viability (NCI-H1666; first compound 0.04 µM): 0.708 | relative viability (NCI-H1666; first compound 0.1265 µM): 0.616 | relative viability (NCI-H1666; first compound 0.4 µM): 0.685 | relative viability (NCI-H1666; first compound 1.265 µM): 0.662 | relative viability (NCI-H1666; first compound 4 µM): 0.577 | relative viability (PC-3 [JPC-3]; first compound 0.04 µM): 1.1 | relative viability (PC-3 [JPC-3]; first compound 0.1265 µM): 0.992 | relative viability (PC-3 [JPC-3]; first compound 0.4 µM): 1.05 | relative viability (PC-3 [JPC-3]; first compound 1.265 µM): 0.66 | relative viability (PC-3 [JPC-3]; first compound 4 µM): 0.385 | relative viability (LOU-NH91; first compound 0.04 µM): 0.911 | relative viability (LOU-NH91; first compound 0.1265 µM): 0.769 | relative viability (LOU-NH91; first compound 0.4 µM): 0.647 | relative viability (LOU-NH91; first compound 1.265 µM): 0.488 | relative viability (LOU-NH91; first compound 4 µM): 0.421 | relative viability (EKVX; first compound 0.04 µM): 0.836 | relative viability (EKVX; first compound 0.1265 µM): 0.817 | relative viability (EKVX; first compound 0.4 µM): 0.825 | relative viability (EKVX; first compound 1.265 µM): 0.78 | relative viability (EKVX; first compound 4 µM): 0.399 | relative viability (NCI-H650; first compound 0.04 µM): 0.363 | relative viability (NCI-H650; first compound 0.1265 µM): 0.306 | relative viability (NCI-H650; first compound 0.4 µM): 0.273 | relative viability (NCI-H650; first compound 1.265 µM): 0.151 | relative viability (NCI-H650; first compound 4 µM): 0.146 | relative viability (NCI-H647; first compound 0.04 µM): 0.384 | relative viability (NCI-H647; first compound 0.1265 µM): 0.185 | relative viability (NCI-H647; first compound 0.4 µM): 0.128 | relative viability (NCI-H647; first compound 1.265 µM): 0.0378 | relative viability (NCI-H647; first compound 4 µM): 0.036 | relative viability (HCC-827; first compound 0.04 µM): 0.622 | relative viability (HCC-827; first compound 0.1265 µM): 0.477 | relative viability (HCC-827; first compound 1.265 µM): 0.596 | relative viability (HCC-827; first compound 4 µM): 0.363 | relative viability (NCI-H2342; first compound 0.04 µM): 0.5 | relative viability (NCI-H2342; first compound 0.1265 µM): 0.501 | relative viability (NCI-H2342; first compound 0.4 µM): 0.476 | relative viability (NCI-H2342; first compound 1.265 µM): 0.313 | relative viability (NCI-H2342; first compound 4 µM): 0.295 | relative viability (LU99A; first compound 0.04 µM): 0.264 | relative viability (LU99A; first compound 0.4 µM): 0.169 | relative viability (LU99A; first compound 1.265 µM): 0.114 | relative viability (LU99A; first compound 4 µM): 0.111 | relative viability (BEN; first compound 0.04 µM): 1.02 | relative viability (BEN; first compound 0.1265 µM): 0.76 | relative viability (BEN; first compound 0.4 µM): 0.671 | relative viability (BEN; first compound 1.265 µM): 0.346 | relative viability (BEN; first compound 4 µM): 0.243 | relative viability (NCI-H2087; first compound 0.04 µM): 0.503 | relative viability (NCI-H2087; first compound 0.1265 µM): 0.509 | relative viability (NCI-H2087; first compound 0.4 µM): 0.646 | relative viability (NCI-H2087; first compound 1.265 µM): 0.381 | relative viability (NCI-H2087; first compound 4 µM): 0.297 | relative viability (HCC-44; first compound 0.04 µM): 0.978 | relative viability (HCC-44; first compound 0.1265 µM): 1.03 | relative viability (HCC-44; first compound 0.4 µM): 0.893 | relative viability (HCC-44; first compound 1.265 µM): 0.851 | relative viability (HCC-44; first compound 4 µM): 0.442
